Measured values published in patent US9012411B2, “Formulations from derivatives of curcumin, paclitaxel, and aspirin” (Organomed Corporation, priority 2009, dated 2015).
In brackets after ≈: the same amount, converted by molar mass. Marks after values point to notes of the source that are not given here.

What was measured:
[1] = test system: tail flick latency in rats; assay: Tail flick test (analgesic activity); format: in vivo, albino rats
Method: Rats were screened for tail flip reaction with a cut-off time of 5 seconds. For each animal, the tail flick latency was obtained thrice before drug administration and mean was used as pre-drug latency. The tail flick latencies were measured at 0, 0.5, 1, 1.5, 2 and 3 h after administration chemicals.
Albino rats obtained from central animal house of institute were used in the study. The animals were kept under 12 hour day night cycle. Animals were given standard diet and water was provided ad libitum. All animals were acclimatized for at least one week before the experimental session. […] Each group consisted of 4 animal each.
Rats were screened for tail flip reaction with a cut-off time of 5 seconds. For each animal, the tail flick latency was obtained thrice before drug administration and mean was used as pre-drug latency. The tail flick latencies were measured at 0, 0.5, 1, 1.5, 2 and 3 h after administration of chemicals.
Each group consisted of 8 animals each. […] Data were analyzed using analysis of variance (ANOVA) with Posthoc Bonferroni multi-comparisons. P<0.05 was considered as statistically significant.

[2] = test system: breast (SKBR3) cancer cell line; assay: Cellular inhibition, Alamar Blue; format: cell-based; conditions: Homo sapiens, SK-BR-3
Method: (§1) Assays were performed with 3 cancer cell lines: breast (SKBR3), pancreatic (Panc1), prostate (PC-3) and 1 normal (nor-cancer) cell line (WI-38). Compounds were delivered to the cells after dissolving in DMSO. Five dilutions per compound were tested on a total of 4 cell lines in 96 well plates. Cellular inhibition was measured using Alamar Blue. After addition of compound a 24 hour and 48 hour time point using fluorescent plate reader was taken. Data from plate reader was analyzed in the following way: % inhibition bar graphs, % inhibition line graphs and IC50 growth inhibition values. In Tables 7-14, IC50 units are Molar (M).

[3] = test system: pancreatic (Panc1) cancer cell line; assay: Cellular inhibition, Alamar Blue; format: cell-based; conditions: Homo sapiens, PANC-1
Method: as §1

[4] = test system: normal (non-cancer) cell line WI-38; assay: Cellular inhibition, Alamar Blue; format: cell-based; conditions: for IC50: Homo sapiens, WI-38
Method: as §1

[5] = test system: prostate (PC-3) cancer cell line; assay: Cellular inhibition, Alamar Blue; format: cell-based
Method: as §1

[6] = In vitro enzyme hydrolysis in human serum (HPLC); format: in vitro ADME; conditions: 25% human serum; for Test compound Rate: rate of decomposition of test compound; for Test compound Concentration: remaining test compound
Method: A 25% solution of human serum in 0.01M phosphate buffer was taken and the test compound (glucose aspirin or aspirin) were added to get a concentration of 0.2 mg/mL. The hydrolysis for the rate of release of salicylic acid and the rate of decomposition of the test compound were measured by HPLC.

[7] = test system: cancer cell lines SKBR3, Panc1, PC-3; assay: Cellular inhibition, Alamar Blue, cancer cell lines taken together; format: cell-based; conditions: 24 hours
Method: as §1

[8] = test system: carrageenan induced rat paw edema; assay: Carrageenan induced rat paw edema; format: in vivo, albino rats; conditions: for Percent inhibition of paw edema (Std. Error): Example 9, 100 mg/kg oral with food
Method: Animals were kept under 13 hour day night cycle. Animals were given standard diet and water was provided ad, libitum. All animals were acclimatized for at least one week before the experimental session. Animals were divided in to five groups. Each group consisted of 8 animals.
Pedal inflammation in albino rats of either sex was produced according to the method of Winter et al., (Proc Soc Exp Biol Med 1963; 111: 544-7). An injection was made with 0.1 ml of 1% carrageenan (SIGMA) suspension into the right hind foot of each rat in the plantar region. […] Control group 5 was given 0.5 ml saline and groups 1 and 2 received aspirin. Increase in linear paw circumference was measured by tying a piece of cotton thread round the rat's paw, and noting the point of intersection of two ends on a meter scale. This was taken as an index of increase in paw volume, which is a measure of oedema (Bamgbose S O A, Noamesi B K. Planta Med 1981; 42: 392-6). Measurements were taken immediately before and at 1, 2 and 3 hours after carrageenan injection. The inhibitory activity was calculated according to the following formula (Awe S O, Olajide O A, Adeboye J O, Makinde J M. Indian J Pharmacol 1998; 30: 38-42):
[formula] Ct-Linear paw circumference 3 hours after carrageenan injection and Co-Linear paw circumference before carrageenan injection.
Albino rats obtained from central animal house of institute were used in the study. The animals were kept under 12 hour day night cycle. Animals were given standard diet and water was provided ad libitum. All animals were acclimatized for at least one week before the experimental session. Animals were divided into twelve groups in the carrageenan induced paw edema and tail flick method. Each group consisted of 4 animal each.
Animals were divided into eight groups in the carrageenan induced paw edema and tail flick method. Each group consisted of 6 animal each. The groups received various chemicals as given in Table 16 by oral administration with food. The following methods were used to evaluate the activity of the compositions:
Pedal inflammation in albino rats of either sex was produced according to the method of Winter et al. (Proc. Soc. Exp. Biol. Med., 1963, 111: 544-547). An injection was made with 0.1 ml of 1% carrageenan (SIGMA) suspension into the right hind foot of each rat in the plantar region. The various chemicals were given 30 minutes before carrageenan injection. Increase in linear paw circumference was measured by tying a piece of cotton thread round the rat's paw, and noting the point of intersection of two ends on a meter scale. This was taken as an index of increase in paw volume, which is a measure of edema (Bamgbose, S. O. A. & Noamesi, B. K., Planta. Med., 1981, 42: 392-396). Measurements were taken immediately before and at 1, 2 and 3 hours after carrageenan injection. The inhibitory activity was calculated according to the following formula (Awe S O, Olajide O A, Adeboye J O, Makinde J M. Indian J. Pharmacol., 1998; 30: 38-42):
Animals were divided into six groups in the carrageenan induced paw edema and tail flick method. Each group consisted of 8 animals each. Carrageenan-induced rat paw edema and Tail flick test were performed as discussed above in Example 8. Data were analyzed using analysis of variance (ANOVA) with Posthoc Bonferroni multi-comparisons. P<0.05 was considered as statistically significant.

[9] = water at 25° C.; Merck Index; cited from earlier work
PANC-1 cells [10] = assay: GI50 (50% inhibition of cell growth), MTT assay, 72 hours; format: cell-based; conditions: Homo sapiens, PANC-1, 72 h
Method: (§2) The cells were plated onto a 96 well plate and treated with different concentrations of the compounds from 1 ng/ml to 10 ug/ml for 72 hours followed by MTT assay.
(§3) The cells were plated onto a 96 well plate and treated with different concentrations of the compounds from 0.04 ng/ml to 400 ng/ml for 72 hours followed by MTT assay.

WI38 normal cell line [11] = assay: as above; format: cell-based; conditions: Homo sapiens, WI-38, 72 h, WI38, 72 hours
Method: as §2, §3

PC3 cells [12] = assay: as above; format: cell-based; conditions: Homo sapiens, PC-3, 72 h, PC3, 72 hours
Method: as §2, §3

SK-BR-3 cells [13] = assay: as above; format: cell-based; conditions: Homo sapiens, SK-BR-3, 72 h
Method: as §2, §3

PANC-1 cells [14] = assay: EC50 cytotoxicity, MTT assay, 48 hours; format: cell-based; conditions: Homo sapiens; PANC-1, 48 hours, 0.04 ng/ml to 400 ng/ml
Method: (§4) Cytotoxicity of the compounds on three different cancer cell lines and one normal cell line was tested. Four human cell lines including both cancer cell lines (SK-BR-3, PANC-1, PC3) and normal cell line (W138) were initially employed. The cells (20,000 cells/well) were plated onto a 96-well plate for 24 hours before treatment. The compounds were diluted in the medium and added to the cells at different concentrations for additional 48 hours from 0.04 ng/ml to 400 ng/ml. MTT assay was then performed.

WI38 normal cell line [15] = assay: EC50 cytotoxicity, MTT assay, 48 hours; format: cell-based; conditions: Homo sapiens, WI-38; WI38, 48 hours, 0.04 ng/ml to 400 ng/ml
Method: as §4

PC3 cells [16] = assay: EC50 cytotoxicity, MTT assay, 48 hours; format: cell-based; conditions: Homo sapiens, PC-3; PC3, 48 hours, 0.04 ng/ml to 400 ng/ml
Method: as §4

SK-BR-3 cells [17] = assay: EC50 cytotoxicity, MTT assay, 48 hours; format: cell-based; conditions: Homo sapiens; SK-BR-3, 48 hours, 0.04 ng/ml to 400 ng/ml
Method: as §4

[18] = Example 6, 50-200 mg/kg, compared with control groups and aspirin
[19] = 0.04 ng/ml to 400 ng/ml (Example 14)
[20] = 1 ng/ml to 10 ug/ml (Example 8)

CC(=O)Oc1ccccc1C(=O)O [Aspirin, acetylsalicylic acid]
Tail flick latency / analgesic activity (in words) ([1]; Example 5, 100 and 200 mg/kg i.p., rats): significant increase in the tail flick latency
Tail flick latency time ([1]; Example 6, 100 mg/kg, 0 min): 1.64 ± 0.27 s
Tail flick latency time ([1]; Example 6, 100 mg/kg, 30 min): 3.28 ± 0.26 s
Tail flick latency time ([1]; Example 6, 100 mg/kg, 60 min): 3.28 ± 0.57 s
Tail flick latency time ([1]; Example 6, 100 mg/kg, 90 min): 2.88 ± 0.26 s
Tail flick latency time ([1]; Example 6, 100 mg/kg, 120 min): 2.73 ± 0.48 s
Tail flick latency time ([1]; Example 6, 100 mg/kg, 180 min): 2.05 ± 0.76 s
Tail flick latency time ([1]; Example 6, 200 mg/kg, 0 min): 2.32 ± 0.46 s
Tail flick latency time ([1]; Example 6, 200 mg/kg, 30 min): 3.46 ± 0.77 s
Tail flick latency time ([1]; Example 6, 200 mg/kg, 60 min): 3.46 ± 0.17 s
Tail flick latency time ([1]; Example 6, 200 mg/kg, 90 min): 3.03 ± 0.42 s
Tail flick latency time ([1]; Example 6, 200 mg/kg, 120 min): 3.12 ± 0.30 s
% MPE / analgesic activity in tail flick test (in words) [1, 18]: significantly more
Tail flick latency time ([1]; Example 8 (in vivo), 100 mg/kg oral with food, 0 min): 2.37 s
Tail flick latency time ([1]; Example 8 (in vivo), 100 mg/kg oral with food, 30 min): 2.75* seconds
Tail flick latency time ([1]; Example 8 (in vivo), 100 mg/kg oral with food, 60 min): 2.68 s
Tail flick latency time ([1]; Example 8 (in vivo), 100 mg/kg oral with food, 90 min): 2.57 s
Tail flick latency time ([1]; Example 8 (in vivo), 100 mg/kg oral with food, 120 min): 2.23 s
Tail flick latency time ([1]; Example 8 (in vivo), 100 mg/kg oral with food, 180 min): 2.37 s
IC50 ([2]; SKBR3, 24 hours): 731 µM
IC50 ([2]; SKBR3, 48 hours): 693 µM
IC50 ([3]; PANC1, 24 hours): 975 µM
IC50 ([3]; PANC1, 48 hours): 745 µM
IC50 ([4]; WI38, 24 hours): 619 µM
IC50 ([4]; WI38, 48 hours): 501 µM
IC50 ([5]; PC3, 24 hours): 771 µM
IC50 ([5]; PC3, 48 hours): 782 µM
Average rate, test compound ([6]; decomposition of test compound, 0-180 min): -1.57e-06 M/min
Test compound Rate ([6]; 0 min): 0 M/min
Test compound Rate ([6]; 30 min): -1.4e-06 M/min
Test compound Rate ([6]; 60 min): -9.81e-07 M/min
Test compound Rate ([6]; 90 min): -2.32e-06 M/min
Test compound Rate ([6]; 120 min): -1.56e-06 M/min
Test compound Rate ([6]; 180 min): -1.58e-06 M/min
Test compound Concentration ([6]; 0 min): 457 µM
Test compound Concentration ([6]; 30 min): 415 µM
Test compound Concentration ([6]; 60 min): 399 µM
Test compound Concentration ([6]; 90 min): 248 µM
Test compound Concentration ([6]; 120 min): 270 µM
Test compound Concentration ([6]; 180 min): 174 µM
inhibition of cancer cell growth (in words) [7]: did not seem to inhibit growth by any significant means
Paw circumference ([8]; Example 6, 100 mg/kg, 0 h): 3.125 ± 0.13 mm
Paw circumference ([8]; Example 6, 100 mg/kg, 1 h): 3.475 ± 0.15 mm
Paw circumference ([8]; Example 6, 100 mg/kg, 2 h): 3.6 ± 0.14 mm
Paw circumference ([8]; Example 6, 100 mg/kg, 3 h): 3.475 ± 0.10 mm
Paw circumference ([8]; Example 6, 200 mg/kg, 0 h): 3.3 ± 0.18 mm
Paw circumference ([8]; Example 6, 200 mg/kg, 1 h): 3.425 ± 0.21 mm
Paw circumference ([8]; Example 6, 200 mg/kg, 2 h): 3.575 ± 0.13 mm
Paw circumference ([8]; Example 6, 200 mg/kg, 3 h): 3.55 ± 0.10 mm
% inhibition of paw edema (in words) [8, 18]: significantly inhibited the development of the edema
Paw circumference ([8]; Example 8 (in vivo), 100 mg/kg oral with food, 0 h): 3.4 mm
Paw circumference ([8]; Example 8 (in vivo), 100 mg/kg oral with food, 1 h): 3.82 mm
Paw circumference ([8]; Example 8 (in vivo), 100 mg/kg oral with food, 2 h): 3.58 mm
Paw circumference ([8]; Example 8 (in vivo), 100 mg/kg oral with food, 3 h): 3.67 mm
Percent inhibition of paw edema (Std. Error) ([8]; 1 hr): 55.44%
Percent inhibition of paw edema (Std. Error) ([8]; 2 hr): 79.16%
Percent inhibition of paw edema (Std. Error) ([8]; 3 hr): 75.29%
Aspirin solubility in water [9]: 0.33 g/100 mL

CC(=O)O[C@H]1C(=O)[C@@]2(C)[C@H]([C@H](OC(=O)c3ccccc3)[C@]3(O)C[C@H](OC(=O)[C@H](O)[C@@H](NC(=O)c4ccccc4)c4ccccc4)C(C)=C1C3(C)C)[C@]1(OC(C)=O)CO[C@@H]1C[C@@H]2O [Taxol, Paclitaxel]
IC50 ([2]; SKBR3, 24 hours): 0.694 µM
IC50 ([2]; SKBR3, 48 hours): 3.23 µM
IC50 ([3]; PANC1, 24 hours): 0.153 µM
IC50 ([3]; PANC1, 48 hours): 0.18 µM
Effect on normal cell growth (WI-38) (in words) ([4]; 48 hours): some effect on normal cell growth
IC50 ([4]; WI38, 24 hours): 19.1 µM
IC50 ([4]; WI38, 48 hours): 80 µM
IC50 ([5]; PC3, 24 hours): 0.0581 µM
IC50 ([5]; PC3, 48 hours): 0.0803 µM
inhibition ([5]; PC-3, 48 hours, all concentrations): ~60%
GI50 (PANC-1 cells [10]; [19]): 5.46 ng/mL (≈ 6.39 nM)
GI50 (PANC-1 cells [10]; [20]): 1.8 ng/mL (≈ 2.11 nM)
GI50 (WI38 normal cell line [11]; [19]): 5.6 ng/mL (≈ 6.56 nM)
GI50 (WI38 normal cell line [11]; [20]): 514 ng/mL (≈ 602 nM)
GI50 (PC3 cells [12]; [19]): 0.05 ng/mL (≈ 0.0586 nM)
GI50 (PC3 cells [12]; [20]): 258 ng/mL (≈ 302 nM)
GI50 (SK-BR-3 cells [13]; [19]): 0.78 ng/mL (≈ 0.913 nM)
GI50 (SK-BR-3 cells [13]; [20]): 1.15 ng/mL (≈ 1.35 nM)
EC50 (PANC-1 cells [14]): 32.8 ng/mL (≈ 38.4 nM)
EC50 (WI38 normal cell line [15]): 37.9 ng/mL (≈ 44.4 nM)
EC50 (PC3 cells [16]): 8.51 ng/mL (≈ 9.97 nM)
EC50 (SK-BR-3 cells [17]): 36.1 ng/mL (≈ 42.2 nM)
